The values that follow come from patent US12226412B2, “Heteroaryl-ketone fused azadecalin glucocorticoid receptor modulators” (Corcept Therapeutics, Inc., priority 2012, dated 2025).

The subject of assay [1] is induction of TAT by dexamethasone in HepG2 cells. Put plainly: HepG2 tyrosine aminotransferase (TAT) assay. In kind it is cell-based, human. To be noted: HepG2 cells, challenge of 100 nM dexamethasone; Ki from IC50 by Cheng and Prusoff equation.
The next assay has as its target T1, human recombinant GR (Homo sapiens, UniProt P04150).
T1 construct: purchased PanVera P2812
T1 sequence (P04150 1-777): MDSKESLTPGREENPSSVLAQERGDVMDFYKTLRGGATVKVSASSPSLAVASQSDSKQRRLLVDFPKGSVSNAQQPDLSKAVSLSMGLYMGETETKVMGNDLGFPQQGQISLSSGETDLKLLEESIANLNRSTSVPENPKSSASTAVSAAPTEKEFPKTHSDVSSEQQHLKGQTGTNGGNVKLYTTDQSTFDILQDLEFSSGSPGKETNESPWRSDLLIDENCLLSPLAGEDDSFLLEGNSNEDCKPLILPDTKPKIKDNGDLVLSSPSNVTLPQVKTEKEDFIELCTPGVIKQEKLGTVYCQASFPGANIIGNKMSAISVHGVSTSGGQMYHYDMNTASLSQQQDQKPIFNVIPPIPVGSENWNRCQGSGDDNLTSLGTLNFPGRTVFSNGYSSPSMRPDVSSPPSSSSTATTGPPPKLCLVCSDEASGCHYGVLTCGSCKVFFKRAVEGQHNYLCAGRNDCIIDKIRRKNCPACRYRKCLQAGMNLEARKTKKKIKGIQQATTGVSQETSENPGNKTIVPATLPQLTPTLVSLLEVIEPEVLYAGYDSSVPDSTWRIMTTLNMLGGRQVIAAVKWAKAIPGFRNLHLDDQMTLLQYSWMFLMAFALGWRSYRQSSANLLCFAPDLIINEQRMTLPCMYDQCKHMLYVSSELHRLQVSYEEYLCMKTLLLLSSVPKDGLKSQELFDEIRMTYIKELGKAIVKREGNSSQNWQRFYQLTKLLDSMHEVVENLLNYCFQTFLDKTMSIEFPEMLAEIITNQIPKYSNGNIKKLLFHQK
Nature of the assay: Human glucocorticoid receptor (GR) fluorescence polarisation (FP) binding assay. To be noted: human recombinant GR, fluorescence polarisation binding assay; read-out: GR binding. Summed up:
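Competition fluorescence polarisation: 0.5 nM GS Red labelled glucocorticoid and 1 nM recombinant human GR with 8-point half-log compound series, 1% DMSO, 4 h room temperature, potassium phosphate pH 7.4 buffer with molybdate, EDTA, DTT. Affinity derived from the drop in polarisation, normalised to blank wells.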
(In general: Fluorescence polarisation rises when a labelled molecule tumbles more slowly, as on binding a larger partner.)

pKi: −log10 of the molar value.

Regarding `Cc1c(S(=O)(=O)N2CCC3=Cc4c(cnn4-c4ccc(F)cc4)C[C@]3(C(=O)c3cc(C(F)(F)F)ccn3)C2)cnn1C` [Example 11BN, (R)-(6-((1,5-dimethyl-1H-pyrazol-4-yl)sulfonyl)-1-(4-fluorophenyl)-4,4a,5,6,7,8-hexahydro-1H-pyrazolo[3,4-g]isoquinolin-4a-yl)(4-(trifluoromethyl)pyridin-2-yl)methanone], the pKi in assay [1] was greater than 7.70; at human recombinant GR it was greater than 9.30.
Consider `O=C(c1cc(C(F)(F)F)ccn1)[C@]12Cc3cnn(-c4ccc(F)cc4)c3C=C1CCN(S(=O)(=O)c1cn[nH]c1)C2` [Example 11BO, (R)-(6-((1H-pyrazol-4-yl)sulfonyl)-1-(4-fluorophenyl)-4,4a,5,6,7,8-hexahydro-1H-pyrazolo[3,4-g]isoquinolin-4a-yl)(4-(trifluoromethyl)pyridin-2-yl)methanone], for which the pKi was greater than 7.70 in assay [1] and greater than 9.30 on human recombinant GR.
In the same order, the values of `Cn1cc(S(=O)(=O)N2CCC3=Cc4c(cnn4-c4ccc(F)cc4)C[C@]3(C(=O)c3ccccn3)C2)c(C(F)(F)F)n1` [Example 11BP, (R)-(1-(4-fluorophenyl)-6-((1-methyl-3-(trifluoromethyl)-1H-pyrazol-4-yl)sulfonyl)-4,4a,5,6,7,8-hexahydro-1H-pyrazolo[3,4-g]isoquinolin-4a-yl)(pyridin-2-yl)methanone] are no more than 7.00 and greater than 9.30.
Consider `O=C(c1cc(C(F)(F)F)ccn1)[C@]12Cc3cnn(-c4ccc(F)cc4)c3C=C1CCN(S(=O)(=O)c1cc(F)c(F)c(F)c1)C2` [Example 11BQ, (R)-(1-(4-fluorophenyl)-6-((3,4,5-trifluorophenyl)sulfonyl)-4,4a,5,6,7,8-hexahydro-1H-pyrazolo[3,4-g]isoquinolin-4a-yl)(4-(trifluoromethyl)pyridin-2-yl)methanone], for which the figures for the pKi (in assay [1]; at human recombinant GR) were greater than 7.70 and less than 9.00, respectively.
In the same order, the values of `Cn1ccc(S(=O)(=O)N2CCC3=Cc4c(cnn4-c4ccc(Cl)cc4)C[C@]3(C(=O)c3cc(C(F)(F)F)ccn3)C2)n1` [Example 11BR, (R)-(1-(4-chlorophenyl)-6-((1-methyl-1H-pyrazol-3-yl)sulfonyl)-4,4a,5,6,7,8-hexahydro-1H-pyrazolo[3,4-g]isoquinolin-4a-yl)(4-(trifluoromethyl)pyridin-2-yl)methanone] are greater than 7.70 and 9.00 to 9.30.
In the same order, the values of `O=C(c1ccccn1)[C@]12Cc3cnn(-c4ccc(F)cc4)c3C=C1CCN(S(=O)(=O)c1cn[nH]c1)C2` [Example 11BS, (R)-(6-((1H-pyrazol-4-yl)sulfonyl)-1-(4-fluorophenyl)-4,4a,5,6,7,8-hexahydro-1H-pyrazolo[3,4-g]isoquinolin-4a-yl)(pyridin-2-yl)methanone] are 7.00 to 7.70 and 9.00 to 9.30.
For `Cn1ccc(S(=O)(=O)N2CCC3=Cc4c(cnn4-c4ccc(C(F)(F)F)cc4)C[C@]3(C(=O)c3ccccn3)C2)n1` [Example 11BT, (R)-(6-((1-methyl-1H-pyrazol-3-yl)sulfonyl)-1-(4-(trifluoromethyl)phenyl)-4,4a,5,6,7,8-hexahydro-1H-pyrazolo[3,4-g]isoquinolin-4a-yl)(pyridin-2-yl)methanone], the pKi in assay [1] is no more than 7.00; at human recombinant GR it was less than 9.00.
The like results for `O=C(c1cscn1)[C@]12Cc3cnn(-c4ccc(F)cc4)c3C=C1CCN(S(=O)(=O)c1ccc(F)c(F)c1)C2` [Example 11BU, (R)-(6-((3,4-difluorophenyl)sulfonyl)-1-(4-fluorophenyl)-4,4a,5,6,7,8-hexahydro-1H-pyrazolo[3,4-g]isoquinolin-4a-yl)(thiazol-4-yl)methanone] were, in that order, 7.00 to 7.70 and less than 9.00.
For `Cc1nc(S(=O)(=O)N2CCC3=Cc4c(cnn4-c4ccc(F)cc4)C[C@]3(C(=O)c3cc(C(F)(F)F)ccn3)C2)cn1C` [Example 11BV, (R)-(6-((1,2-dimethyl-1H-imidazol-4-yl)sulfonyl)-1-(4-fluorophenyl)-4,4a,5,6,7,8-hexahydro-1H-pyrazolo[3,4-g]isoquinolin-4a-yl)(4-(trifluoromethyl)pyridin-2-yl)methanone], the pKi in assay [1] is greater than 7.70; at human recombinant GR it was greater than 9.30.
As to `Cc1ncc(S(=O)(=O)N2CCC3=Cc4c(cnn4-c4ccc(F)cc4)C[C@]3(C(=O)c3cc(C(F)(F)F)ccn3)C2)n1C` [Example 11BW, (R)-(6-((1,2-dimethyl-1H-imidazol-5-yl)sulfonyl)-1-(4-fluorophenyl)-4,4a,5,6,7,8-hexahydro-1H-pyrazolo[3,4-g]isoquinolin-4a-yl)(4-(trifluoromethyl)pyridin-2-yl)methanone], the pKi in assay [1] is 7.00 to 7.70; at human recombinant GR, less than 9.00.
The like results for `Cn1ccnc1S(=O)(=O)N1CCC2=Cc3c(cnn3-c3ccc(F)cc3)C[C@]2(C(=O)c2cc(C(F)(F)F)ccn2)C1` [Example 11BX, (R)-(1-(4-fluorophenyl)-6-((1-methyl-1H-imidazol-2-yl)sulfonyl)-4,4a,5,6,7,8-hexahydro-1H-pyrazolo[3,4-g]isoquinolin-4a-yl)(4-(trifluoromethyl)pyridin-2-yl)methanone] were, in that order, greater than 7.70 and 9.00 to 9.30.
In the same order, the values of `CCn1cnc(S(=O)(=O)N2CCC3=Cc4c(cnn4-c4ccc(F)cc4)C[C@]3(C(=O)c3cc(C(F)(F)F)ccn3)C2)c1` [Example 11BY, (R)-(6-((1-ethyl-1H-imidazol-4-yl)sulfonyl)-1-(4-fluorophenyl)-4,4a,5,6,7,8-hexahydro-1H-pyrazolo[3,4-g]isoquinolin-4a-yl)(4-(trifluoromethyl)pyridin-2-yl)methanone] are greater than 7.70 and greater than 9.30.
Take `CCn1cc(S(=O)(=O)N2CCC3=Cc4c(cnn4-c4ccc(F)cc4)C[C@]3(C(=O)c3cscn3)C2)cn1` [Example 11BZ, (R)-(6-((1-ethyl-1H-pyrazol-4-yl)sulfonyl)-1-(4-fluorophenyl)-4,4a,5,6,7,8-hexahydro-1H-pyrazolo[3,4-g]isoquinolin-4a-yl)(thiazol-4-yl)methanone]: the pKi in assay [1] is 7.00 to 7.70; on human recombinant GR, greater than 9.30.
The like results for `COc1ccc(S(=O)(=O)N2CCC3=Cc4c(cnn4-c4ccc(F)cc4)C[C@]3(C(=O)c3ccccn3)C2)cc1Cl` [Example 11C, (R)-(6-((3-chloro-4-methoxyphenyl)sulfonyl)-1-(4-fluorophenyl)-4,4a,5,6,7,8-hexahydro-1H-pyrazolo[3,4-g]isoquinolin-4a-yl)(pyridin-2-yl)methanone] were, in that order, 7.00 to 7.70 and greater than 9.30.
The like results for `CCCn1cc(S(=O)(=O)N2CCC3=Cc4c(cnn4-c4ccc(F)cc4)C[C@]3(C(=O)c3ccccn3)C2)cn1` [Example 11CA, (R)-(1-(4-fluorophenyl)-6-((1-propyl-1H-pyrazol-4-yl)sulfonyl)-4,4a,5,6,7,8-hexahydro-1H-pyrazolo[3,4-g]isoquinolin-4a-yl)(pyridin-2-yl) methanone] were, in that order, greater than 7.70 and greater than 9.30.
In the same order, the values of `COCCn1cc(S(=O)(=O)N2CCC3=Cc4c(cnn4-c4ccc(F)cc4)C[C@]3(C(=O)c3ccccn3)C2)cn1` [Example 11CB, (R)-(1-(4-fluorophenyl)-6-((1-(2-methoxyethyl)-1H-pyrazol-4-yl)sulfonyl)-4,4a,5,6,7,8-hexahydro-1H-pyrazolo[3,4-g]isoquinolin-4a-yl)(pyridin-2-yl)methanone] are greater than 7.70 and greater than 9.30.
As for `Cn1cc(C(=O)[C@]23Cc4cnn(-c5ccc(F)cc5)c4C=C2CCN(S(=O)(=O)c2ccc(Cl)c(Cl)c2)C3)cn1` [Example 11CC, (R)-(6-((3,4-dichlorophenyl)sulfonyl)-1-(4-fluorophenyl)-4,4a,5,6,7,8-hexahydro-1H-pyrazolo[3,4-g]isoquinolin-4a-yl)(1-methyl-1H-pyrazol-4-yl)methanone], the pKi in assay [1] was 7.00 to 7.70; on human recombinant GR, less than 9.00.
The like results for `CC(C)n1cc(S(=O)(=O)N2CCC3=Cc4c(cnn4-c4ccc(F)cc4)C[C@]3(C(=O)c3ccccn3)C2)cn1` [Example 11CD, (R)-(1-(4-fluorophenyl)-6-((1-isopropyl-1H-pyrazol-4-yl)sulfonyl)-4,4a,5,6,7,8-hexahydro-1H-pyrazolo[3,4-g]isoquinolin-4a-yl)(pyridin-2-yl) methanone] were, in that order, greater than 7.70 and greater than 9.30.
In the same order, the values of `Cn1ncc(S(=O)(=O)N2CCC3=Cc4c(cnn4-c4ccc(F)cc4)C[C@]3(C(=O)c3cc(C(F)(F)F)ccn3)C2)n1` [Example 11CE, (R)-(1-(4-fluorophenyl)-6-((2-methyl-2H-1,2,3-triazol-4-yl)sulfonyl)-4,4a,5,6,7,8-hexahydro-1H-pyrazolo[3,4-g]isoquinolin-4a-yl)(4-(trifluoromethyl)pyridin-2-yl)methanone] are greater than 7.70 and greater than 9.30.
